Test results published in patent US8492310B2, “Herbicidal compositions containing benzoylpyrazole compounds” (priority 2008, dated 2013).
Read-outs that look alike come from different tables or passages of the source.

Assays:
Format in all cases: in vivo
[1] = tested on: velvetleaf (Abutilon theophrasti MEDIC.); assay: Foliar treatment pot test, visual growth inhibition rate, velvetleaf (AT); settings: Abutilon theophrasti, foliar
Source text: (§1) When the herbicidal activity in a case where two active ingredients are combined, is larger than the simple sum of the respective herbicidal activities of the two active ingredients (the expected activity), it is called a synergistic effect. The activity expected by the combination of two active ingredients can be calculated as follows (Colby S. R., “Weed”, vol. 15, p. 20-22, 1967). E=α+β−(α×β÷100) where
(§2) Upland field soil was put into a 1/1,000,000 hectare pot, and seeds of various plants (barnyardgrass (Echinochloa crus-qalli L.), crabgrass (Digitaria sanguinalis L.), giant foxtail (Setaria faberi Herrm.), velvetleaf (Abutilon theophrasti MEDIC.) and prickly sida (Sida spinosa L.)) were sown. When the respective plants reached predetermined leaf stage, herbicidal compositions in predetermined amounts were diluted with water in an amount corresponding to 300 L/ha and applied for foliar treatment by a small sprayer.
(§3) Further, in accordance with the above Colby's formula, the growth inhibition rate (calculated value) was calculated. In Tables, with respect to the compound Q, Compound Nos. in Table 1 are described, and with respect to other herbicidal compounds, common names are described. Further, in Tables, barnyardgrass is represented by “EC”, crabgrass by “DS”, giant foxtail by “SF”, velvetleaf by “AT”, and prickly sida by “SS”.

[2] = tested on: prickly sida (Sida spinosa L.); assay: Foliar treatment pot test, visual growth inhibition rate, prickly sida (SS); settings: Sida spinosa, foliar, 336 h, 3.0-3.3 leaf stage, 14 DAT, read-out: Growth inhibition rate (%) of SS Measured value
Source text: as §1, §2, §3

[3] = tested on: crabgrass (Digitaria sanguinalis L.); assay: Foliar treatment pot test, visual growth inhibition rate, crabgrass (DS); settings: Digitaria sanguinalis, foliar; for inhibition at […]: 2.5 g/ha
Source text: as §1, §2, §3

[4] = 504 h, 4.0-5.1 leaf stage, 21 DAT, read-out: Growth inhibition rate (%) of DS Measured value
[5] = 504 h, 3.0-3.5 leaf stage, 21 DAT, read-out: Growth inhibition rate (%) of AT Measured value
[6] = 528 h, 4.5-5.0 leaf stage, 22 DAT, read-out: Growth inhibition rate (%) of AT Measured value

SMILES: CCOCN(C(=O)CCl)c1c(C)cccc1CC [Acetochlor, acetochlor]
- inhibition at 63 g/ha ([1]; 168 h, 2.3-3.5 leaf stage, 7 DAT, 63 g/ha, read-out: Growth inhibition rate (%) of AT Measured value): 0%
- inhibition at 125 g/ha ([1]; 168 h, 2.3-3.5 leaf stage, 7 DAT, 125 g/ha, read-out: Growth inhibition rate (%) of AT Measured value): 0%
- inhibition at 250 g/ha ([1]; 168 h, 2.3-3.5 leaf stage, 7 DAT, 250 g/ha, read-out: Growth inhibition rate (%) of AT Measured value): 0%
- inhibition at 500 g/ha ([1]; 168 h, 2.3-3.5 leaf stage, 7 DAT, 500 g/ha, read-out: Growth inhibition rate (%) of AT Measured value): 10%
- inhibition at 750 g/ha ([1]; 168 h, 2.3-3.5 leaf stage, 7 DAT, 750 g/ha, read-out: Growth inhibition rate (%) of AT Measured value): 0%
- inhibition at 150 g/ha ([1]; 336 h, 3.0-4.0 leaf stage, 14 DAT, 150 g/ha, read-out: Growth inhibition rate (%) of AT Measured value): 0%
- inhibition at 300 g/ha ([1]; 480 h, 3.1-3.4 leaf stage, 20 DAT, 300 g/ha, read-out: Growth inhibition rate (%) of AT Measured value): 0%
- inhibition at 400 g/ha ([1]; 504 h, 3.0-3.8 leaf stage, 21 DAT, 400 g/ha, read-out: Growth inhibition rate (%) of AT Measured value): 0%
- inhibition at 100 g/ha ([2]; 100 g/ha): 0%
- inhibition at 200 g/ha ([2]; 200 g/ha): 0%
- inhibition at 400 g/ha ([2]; 400 g/ha): 10%
- inhibition at 800 g/ha ([2]; 800 g/ha): 30%
- inhibition at 63 g/ha ([3]; 168 h, 3.5-5.0 leaf stage, 7 DAT, 63 g/ha, read-out: Growth inhibition rate (%) of DS Measured value): 0%
- inhibition at 125 g/ha ([3]; 168 h, 3.5-5.0 leaf stage, 7 DAT, 125 g/ha, read-out: Growth inhibition rate (%) of DS Measured value): 0%
- inhibition at 250 g/ha ([3]; 168 h, 3.5-5.0 leaf stage, 7 DAT, 250 g/ha, read-out: Growth inhibition rate (%) of DS Measured value): 0%
- inhibition at 500 g/ha ([3]; 168 h, 3.5-5.0 leaf stage, 7 DAT, 500 g/ha, read-out: Growth inhibition rate (%) of DS Measured value): 0%
- inhibition at 750 g/ha ([3]; 168 h, 3.5-5.0 leaf stage, 7 DAT, 750 g/ha, read-out: Growth inhibition rate (%) of DS Measured value): 10%
- inhibition at 150 g/ha ([3]; 336 h, 4.0-5.0 leaf stage, 14 DAT, read-out: Growth inhibition rate (%) of DS Measured value): 0%
- inhibition at 400 g/ha ([3]; 504 h, 3.5-4.3 leaf stage, 21 DAT, 400 g/ha, read-out: Growth inhibition rate (%) of DS Measured value): 0%
- inhibition at 150 g/ha [3, 4]: 0%

SMILES: COc1nc(C)nc(NC(=O)NS(=O)(=O)c2ccccc2CCC(F)(F)F)n1 [Prosulfuron, prosulfuron]
- inhibition at 10 g/ha [1, 5]: 100%
- inhibition at 1.25 g/ha ([1]; 504 h, 4.0-4.3 leaf stage, 21 DAT, 1.25 g/ha, read-out: Growth inhibition rate (%) of AT Measured value): 50%
- inhibition at 5 g/ha ([1]; 504 h, 4.0-4.3 leaf stage, 21 DAT, read-out: Growth inhibition rate (%) of AT Measured value): 95%
- inhibition at 5 g/ha ([1]; 528 h, 4.1-4.5 leaf stage, 22 DAT, read-out: Growth inhibition rate (%) of AT Measured value): 90%
- inhibition at 5 g/ha [1, 6]: 0%
- inhibition at 10 g/ha [1, 6]: 0%
- inhibition at 1.25 g/ha ([3]; 504 h, 4.0-5.1 leaf stage, 21 DAT, 1.25 g/ha, read-out: Growth inhibition rate (%) of DS Measured value): 10%
- inhibition at […] [3, 4]: 5%
- inhibition at 5 g/ha [3, 4]: 0%
- inhibition at 5 g/ha ([3]; 528 h, 4.0-5.0 leaf stage, 22 DAT, read-out: Growth inhibition rate (%) of DS Measured value): 0%
- inhibition at […] ([3]; 528 h, 4.8-5.5 leaf stage, 22 DAT, read-out: Growth inhibition rate (%) of DS Measured value): 0%
- inhibition at 10 g/ha ([3]; 552 h, 4.0-5.1 leaf stage, 23 DAT, 10 g/ha, read-out: Growth inhibition rate (%) of DS Measured value): 0%

SMILES: Cn1nc(C(F)(F)F)c(CS(=O)(=O)C2=NOC(C)(C)C2)c1OC(F)F [Pyroxasulfone, pyroxasulfone]
- inhibition at 50 g/ha ([1]; 312 h, 3.3-4.2 leaf stage, 13 DAT, read-out: Growth inhibition rate (%) of AT Measured value): 5%
- inhibition at 50 g/ha ([1]; 336 h, 3.0-4.0 leaf stage, 14 DAT, read-out: Growth inhibition rate (%) of AT Measured value): 0%
- inhibition at 50 g/ha [1, 5]: 0%
- inhibition at 50 g/ha ([3]; 312 h, 4.4-5.0 leaf stage, 13 DAT, 50 g/ha, read-out: Growth inhibition rate (%) of DS Measured value): 0%
- inhibition at 100 g/ha ([3]; 336 h, 4.0-5.0 leaf stage, 14 DAT, 100 g/ha, read-out: Growth inhibition rate (%) of DS Measured value): 5%
- inhibition at 50 g/ha ([3]; 504 h, 4.0-5.0 leaf stage, 21 DAT, 50 g/ha, read-out: Growth inhibition rate (%) of DS Measured value): 10%

SMILES: CCS(=O)(=O)c1cccnc1S(=O)(=O)NC(=O)Nc1nc(OC)cc(OC)n1 [Rimsulfuron, rimsulfuron]
- inhibition at 20 g/ha ([1]; 504 h, 3.5-4.3 leaf stage, 21 DAT, 20 g/ha, read-out: Growth inhibition rate (%) of AT Measured value): 99%
- inhibition at 15 g/ha ([1]; 552 h, 3.0-3.5 leaf stage, 23 DAT, 15 g/ha, read-out: Growth inhibition rate (%) of AT Measured value): 70%
- inhibition at 15 g/ha ([3]; 552 h, 4.0-5.1 leaf stage, 23 DAT, 15 g/ha, read-out: Growth inhibition rate (%) of DS Measured value): 98%

SMILES: CS(=O)(=O)c1ccc(C(=O)C2C(=O)CCCC2=O)c(Cl)c1 [Sulcotrione]
- inhibition at 31 g/ha ([1]; 576 h, read-out: Growth inhibition rate (%) of AT Measured value, 3.2-4.1 leaf stage, 24 DAT, 31 g/ha): 60%
- inhibition at 25 g/ha ([3]; 480 h, read-out: Growth inhibition rate (%) of DS Measured value, 3.7-4.0 leaf stage, 20 DAT, 25 g/ha): 45%
- inhibition at 50 g/ha ([3]; 480 h, read-out: Growth inhibition rate (%) of DS Measured value, 3.7-4.0 leaf stage, 20 DAT, 50 g/ha): 60%
- inhibition at 100 g/ha ([3]; 480 h, read-out: Growth inhibition rate (%) of DS Measured value, 3.7-4.0 leaf stage, 20 DAT, 100 g/ha): 80%
- inhibition at 50 g/ha ([3]; 480 h, read-out: Growth inhibition rate (%) of DS Measured value, 5.1-5.2 leaf stage, 20 DAT, 50 g/ha): 60%
- inhibition at 100 g/ha ([3]; 480 h, read-out: Growth inhibition rate (%) of DS Measured value, 5.1-5.2 leaf stage, 20 DAT, 100 g/ha): 95%
